Measurements as given in EP2623502A1, “NOVEL COMPOUND HAVING STRIGOLACTONE-LIKE ACTIVITY AND USE THEREOF” (Riken, priority 2010, dated 2012).

Tests used:
rice d10 variant = assay: Tiller (rice branching) inhibitory activity in hydroponic culture; type: in vivo; settings: for activity of inhibiting the morphology of the tiller / length of the secondary tiller: rice d10 variant; for length of the secondary tiller: compared with untreated d10 variant (Figure 4)
Description: In this Example, a rice d10 variant (Arite et al., Plant J, 51 (6) 1019-1029 (2007)) was used, and the strigolactone-like compound of the present invention was examined for its effects on this variant. […] In this d10 variant, the functions of a strigolactone biosynthetic enzyme are inhibited by the variation of the strigolactone biosynthetic gene so that the amount of endogenous strigolactone is decreased.
First, rice seeds were sterilized for 30 minutes with 2.5% sodium hypochlorite containing 0.01% Tween-20 and then washed with sterilized water. Then, the seeds were germinated by culture for 2 days in sterilized water of 25°C under dark conditions. The germinated seeds were transferred to a hydroponic culture medium containing 0.6% agar and grown for 6 days under conditions of a 16-hour light period and an 8-hour dark period under a fluorescent light. […] The number of tillers and the length of each tiller were determined. In this context, the test compounds used were the strigolactone-like compounds BPMF, TFTF, CPMF, NPMF, FPMF, and IPMF shown in Figure 1A, NaMF described in Synthesis Example 3, and GR24 as a control at a concentration of 1 µM, 100 nM, or 10 nM.
In the same way as in Example 1(1), the strigolactone-like compound was examined for its effects on rice tillers.
In this context, the test compounds used were p-CPMF, m-CPMF, o-CPMF, o-FPMF (1-14), o-BPMF (1-15), p-BPMF, 1-NaphMF (1-16), 2-NaphMF (NaMF), CNMF (1-17), CQMF (1-19), and TeMF (1-18) and GR24 as a control at a concentration of 1 µM or 100 nM. Also, PMF and p-CBMF were used at a concentration of 1 µM.
In this context, the test compounds used were 2-1 (2,3-DCMF), 2-2 (2,4-DCMF), 2-3 (2,5-DCMF), and 2-4 (2,6-DCMF) at a concentration of 1 µM, 100 nM, or 10 nM and GR24 as a control at a concentration of 1 µM or 100 nM.
In this context, the test compounds used were p-BPMF, 2,4-DCMF (2-2), o-BBMF (3-1), o-BPMF (1-15), o-CBMF (3-2), o-CPMF, and o-FPMF (1-14) at a concentration of 100 nM or 10 nM, 2-16, 2-6, 2-17, 2-18, and 2-19 at a concentration of 0.1 µM or 1 µM, and GR24 as a control at a concentration of 1 µM or 100 nM.

[1] = in water at 20°C; cited from earlier work
[2] = system: Arabidopsis thaliana max3 variant; assay: Branching inhibitory activity in hydroponic culture; type: in vivo; settings: for activity of inhibiting the morphology of the tiller of the max3 variant: 5 µM in hydroponic culture solution, 15 days (Figure 6)
Source text: In this Example, the strigolactone-like compound BPMF of the present invention was examined for its effects on an Arabidopsis thaliana max3 variant. The Arabidopsis thaliana max3 variant is a strigolactone-deficient variant, as in the rice d10 variant, and is known to have a larger number of branches (Booker J. et al., Current Biology, 14: 1232-1238 (2004)).
Briefly speaking, the surfaces of the respective seeds of wild-type Arabidopsis thaliana and the max3 variant were separately sterilized for 5 minutes with a 1% aqueous sodium hypochlorite solution. The thus-treated seeds of each strain were washed five times with sterilized water and allowed to absorb water at 4°C for 1 day under dark conditions. Then, the seeds were inoculated to a 1/2 MS medium containing 1% sucrose and 0.8% agar and cultured at 22°C for 15 days under conditions of a 16-hour day length under a fluorescent light (60 to 70 µmol m^-2 s^-1). […] Nine healthy seedlings were selected from each pot and further hydroponically cultured for 15 days (a total of 30 days) so as to prevent the above-ground part from being wetted by the hydroponic culture solution. The test compounds used were BPMF and GR24 (control). The test compound-containing hydroponic culture solution was replaced every three days.

[3] = Stability test in water (residual compound by HPLC); type: physicochemical; settings: 30 days in water at 20°C, read-out: stably present after being left in water
Description: The strigolactone-like compound BPMF was left for 30 days in water at 20°C, and change in its activity was then determined. Briefly speaking, rice was hydroponically cultured in the same way as in the hydroponic rice culture solution test conducted in Example 3, and the amount of a residual compound in the resulting solution was calculated using HPLC. First, the hydroponic culture solution adjusted to a predetermined concentration was collected at regular intervals and filtered through a filter. Then, a predetermined amount (e.g., 10 µl) was analyzed by HPLC. The content was determined on the basis of an area value, and the degree of decomposition was calculated by comparison with a standard.

endogenous strigolactone = assay: Measurement of amount of endogenous strigolactone (LC/MS-MS); type: in vivo, rice (Shiokari); settings: 24 hours, 0.1 µM, 1 µM or 10 µM
Description: In this Example, the amount of strigolactone exudates from a plant treated with the strigolactone-like compound was measured.
A sterilized solution I (2.5% sodium hypochlorite and 0.01% Tween-20) was added to rice seeds (Shiokari) and shaken at room temperature for 15 minutes. The sterilized solution I was discarded, and a sterilized solution II (2.5% sodium hypochlorite) was added thereto and shaken at room temperature for 15 minutes. In a clean bench, the sterilized solution II was discarded, and the seeds were washed five times with sterilized water and left standing at 25°C for 2 days in a dark place. Two days later, the germinated seeds were transplanted in an agar medium for hydroponic rice culture and left standing at 25°C for 6 days under conditions of a 16-hour light period and an 8-hour dark period. […]
To each hydroponic rice culture solution, 200 pg of d1-2'-epi-5-deoxystrigol per 10 mL of the hydroponic rice culture solution was added, followed by extraction with ethyl acetate (3 mL) twice. […] The sample was dried, dissolved in 50% acetonitrile, and analyzed by LC/MS-MS.
To the rice root dipped in acetone, 200 pg of d1-2'-epi-5-deoxystrigol was added, and the root was then disrupted. […] The sample was dried, dissolved in 50% acetonitrile, and analyzed by LC/MS-MS.

parasitic weed = assay: Parasitic weed germination-inducing activity (result not shown); type: in vivo; settings: compared with p-BPMF
Description: In this Example, the seeds of a parasitic weed Orobanche minor or Striga hermonthica were used, and the strigolactone-like compound of the present invention was examined for its parasitic weed germination-promoting activity.
The Striga hermonthica seeds were dipped in a 0.5% sodium hypochlorite solution containing 0.03% Tween and sterilized by treatment for 3 minutes using an ultrasonic generator. The seeds were washed three times with sterilized water and surface-dried at 27°C. Then, approximately 50 seeds were left, for preculture, at room temperature for 10 to 12 days under dark conditions on an 8-mm glass fiber filter paper moistened with 50 µl of sterilized water. A solution of each test compound concentration-adjusted by dissolution in sterilized water was used in bioassay. A filter paper was placed on a 5-cm Petri dish, and 1 ml of the test compound solution or sterilized water for comparison was added thereto. The glass fiber filter paper with the precultured parasitic weed seeds placed thereon was put on the resulting Petri dish and cultured at 30°C for 24 hours, followed by calculation of the germination rate. The test compounds used were the strigolactone-like compound BPMF shown in Figure 1A and GR24 as control at a concentration of 50 µM. […]

[4] = concentration of 100 nM, Example 8 (Figure 14)
[5] = concentration of 100 nM, Example 10 (Figures 16-1, 16-2)

Structure (SMILES): CC1=CC(Oc2cccc(Cl)c2Cl)OC1=O (stereo not shown) [2-1]
- activity of inhibiting the morphology of the tiller (rice d10 variant; [4]): high activity

Structure (SMILES): CC1=CC(Oc2ccc(Cl)cc2Cl)OC1=O (stereo not shown) [2-2]
- activity of inhibiting the morphology of the tiller (rice d10 variant; [4]): high activity
- activity of inhibiting the morphology of the tiller (rice d10 variant; [5]): high activity

Structure (SMILES): CC1=CC(Oc2cc(Cl)ccc2Cl)OC1=O (stereo not shown) [2-3]
- activity of inhibiting the morphology of the tiller (rice d10 variant; [4]): high activity

Structure (SMILES): CC1=CC(Oc2ccc(Br)cc2Br)OC1=O (stereo not shown) [2-6]
- activity of inhibiting the morphology of the tiller (rice d10 variant; [5]): high activity

Structure (SMILES): CC1=CC(Oc2ccc(F)cc2F)OC1=O (stereo not shown) [2-16]
- activity of inhibiting the morphology of the tiller (rice d10 variant; [5]): high activity

Structure (SMILES): CC1=CC(Oc2ccc(I)cc2I)OC1=O (stereo not shown) [2-17]
- activity of inhibiting the morphology of the tiller (rice d10 variant; [5]): high activity

Structure (SMILES): CC1=CC(Oc2ccc(C(F)(F)F)cc2C(F)(F)F)OC1=O (stereo not shown) [2-18]
- activity of inhibiting the morphology of the tiller (rice d10 variant; [5]): high activity

Structure (SMILES): CC1=CC(Oc2ccc(C#N)cc2C#N)OC1=O (stereo not shown) [2-19]
- activity of inhibiting the morphology of the tiller (rice d10 variant; [5]): high activity

Structure (SMILES): CC1=CC(OC=C2C(=O)OC3C4=C(CCCC4(C)C)CC23)OC1=O (stereo not shown) [5-DS]
- half-life [1]: approximately 1.5 days

Structure (SMILES): CC1=CC(Oc2ccc(Br)cc2)OC1=O (stereo not shown) [BPMF, 5-(4-bromophenoxy)-3-methylfuran-2(5H)-one]
- activity of inhibiting the morphology of the tiller of the max3 variant [2]: exhibited the activity of inhibiting the morphology of the tiller of the max3 variant
- morphology of the max3 variant ([2]; after 30-day growth, 1 µM (Figure 7)): restored its morphology similar to that of the wild-type strain
- morphology of the d10 variant (rice d10 variant; after 12-day growth, 10 µM (Figure 3)): restored its morphology similar to that of the wild-type strain
- concentration-dependent activity against the rice d10 variant (rice d10 variant; compared with GR24 (Figure 4)): strong activity, which was larger than that of the typical non-natural strigolactone GR24
- time-dependent change in the number of tillers (rice d10 variant; d10 variant, 27, 37 and 47 days after treatment with 1 nM or 10 nM (Figure 5)): more effective and have more persistent activity than GR24
- length of the secondary tiller (rice d10 variant): obviously inhibited
- activity of inhibiting the morphology of the tiller (rice d10 variant; concentration of 10 nM (Figure 2)): strongest activity
- activity of inhibiting the morphology of the tiller (rice d10 variant; concentration of 100 nM, Example 6 (Figures 12-1 to 12-3)): strongest activity
- activity of inhibiting the morphology of the tiller (rice d10 variant; [5]): high activity
- remaining at 720 h [3]: ≥ 95%
- amount of endogenous strigolactone exudates from the rice root to the hydroponic culture solution (endogenous strigolactone; compared with GR24 (Figure 10)): decreased the amount of natural strigolactone synthesized, and this effect was higher than that of GR24
- amount of plant natural strigolactone synthesized (endogenous strigolactone; in the hydroponic rice culture solution and the rice root): decreased

Structure (SMILES): CC1=CC(OC=C2C(=O)OC3c4ccccc4CC23)OC1=O (stereo not shown) [GR24, reference compound]
- half-life [1]: approximately 10 days
- activity of inhibiting the morphology of the tiller of the max3 variant [2]: exhibited the activity of inhibiting the morphology of the tiller of the max3 variant

Structure (SMILES): CC1=CC(Oc2ccc3ccccc3c2)OC1=O (stereo not shown) [NaMF]
- activity of inhibiting the morphology of the tiller (rice d10 variant; 6 days in hydroponic solution with compound at 1 µM, 100 nM or 10 nM (Figure 2)): slightly weaker than that of the other compounds

Structure (SMILES): CC1=CC(Oc2ccc(C(F)(F)F)cc2)OC1=O (stereo not shown) [TFTF]
- length of the secondary tiller (rice d10 variant): obviously inhibited

Structure (SMILES): CC1=CC(Oc2ccccc2Br)OC1=O (stereo not shown) [o-BPMF]
- parasitic weed germination-inducing activity (parasitic weed): stronger parasitic weed germination-inducing activity than that of p-BPMF
- tiller inhibitory activity (rice d10 variant; result not shown): weak tiller inhibitory activity
- activity of inhibiting the morphology of the tiller (rice d10 variant; [5]): high activity

Structure (SMILES): CC1=CC(Oc2ccccc2Cl)OC1=O (stereo not shown) [o-CPMF]
- activity of inhibiting the morphology of the tiller (rice d10 variant; [5]): high activity

Structure (SMILES): CC1=CC(Oc2ccccc2F)OC1=O (stereo not shown) [o-FPMF]
- activity of inhibiting the morphology of the tiller (rice d10 variant; [5]): high activity
